Experimental findings from ChEMBL document CHEMBL4433239, “Synthesis of N'-propylhydrazide analogs of hydroxamic inhibitors of histone deacetylases (HDACs) and evaluation of their impact on activities of HDACs and replication of hepatitis C virus (HCV)” (Bioorg Med Chem Lett, 2019) are described below.

pEC50, pIC50: −log10 of the molar value. Activity calls are given as the source filed them. The calls are words filed in the database; no cut-off is given here. A value given as a limit tells only on which side of the number the result lay.

The test system of one data set is Hepatitis C virus. In words: Antiviral activity against HCV infected in human HuH7-luc/neo cells assessed as inhibition of DNA replication incubated for 3 days by luciferase reporter gene assay. The format is functional, organism-based, Hepacivirus hominis. The following applies: 72 h. In general terms: A reporter such as luciferase makes a cellular process visible.

Data set [1] is described as follows: Cytotoxicity against human HuH7 cells assessed as reduction in cell viability incubated for 3 days by MTT assay. The class given is cell-based, Huh-7. On the technique in general: Tetrazolium assays rely on reduction of a dye to a coloured formazan, in cell work by metabolically active cells.
Data set [2] is described as follows: Therapeutic index, ratio of CC50 for human HuH7 cells to EC50 for antiviral activity against HCV infected in human HuH7-luc/neo cells assessed as inhibition of DNA replication i.
For data set [3], the target named is T1, Protein deacetylase HDAC6 (Homo sapiens, UniProt Q9UBN7).
T1 sequence (Q9UBN7 whole entry): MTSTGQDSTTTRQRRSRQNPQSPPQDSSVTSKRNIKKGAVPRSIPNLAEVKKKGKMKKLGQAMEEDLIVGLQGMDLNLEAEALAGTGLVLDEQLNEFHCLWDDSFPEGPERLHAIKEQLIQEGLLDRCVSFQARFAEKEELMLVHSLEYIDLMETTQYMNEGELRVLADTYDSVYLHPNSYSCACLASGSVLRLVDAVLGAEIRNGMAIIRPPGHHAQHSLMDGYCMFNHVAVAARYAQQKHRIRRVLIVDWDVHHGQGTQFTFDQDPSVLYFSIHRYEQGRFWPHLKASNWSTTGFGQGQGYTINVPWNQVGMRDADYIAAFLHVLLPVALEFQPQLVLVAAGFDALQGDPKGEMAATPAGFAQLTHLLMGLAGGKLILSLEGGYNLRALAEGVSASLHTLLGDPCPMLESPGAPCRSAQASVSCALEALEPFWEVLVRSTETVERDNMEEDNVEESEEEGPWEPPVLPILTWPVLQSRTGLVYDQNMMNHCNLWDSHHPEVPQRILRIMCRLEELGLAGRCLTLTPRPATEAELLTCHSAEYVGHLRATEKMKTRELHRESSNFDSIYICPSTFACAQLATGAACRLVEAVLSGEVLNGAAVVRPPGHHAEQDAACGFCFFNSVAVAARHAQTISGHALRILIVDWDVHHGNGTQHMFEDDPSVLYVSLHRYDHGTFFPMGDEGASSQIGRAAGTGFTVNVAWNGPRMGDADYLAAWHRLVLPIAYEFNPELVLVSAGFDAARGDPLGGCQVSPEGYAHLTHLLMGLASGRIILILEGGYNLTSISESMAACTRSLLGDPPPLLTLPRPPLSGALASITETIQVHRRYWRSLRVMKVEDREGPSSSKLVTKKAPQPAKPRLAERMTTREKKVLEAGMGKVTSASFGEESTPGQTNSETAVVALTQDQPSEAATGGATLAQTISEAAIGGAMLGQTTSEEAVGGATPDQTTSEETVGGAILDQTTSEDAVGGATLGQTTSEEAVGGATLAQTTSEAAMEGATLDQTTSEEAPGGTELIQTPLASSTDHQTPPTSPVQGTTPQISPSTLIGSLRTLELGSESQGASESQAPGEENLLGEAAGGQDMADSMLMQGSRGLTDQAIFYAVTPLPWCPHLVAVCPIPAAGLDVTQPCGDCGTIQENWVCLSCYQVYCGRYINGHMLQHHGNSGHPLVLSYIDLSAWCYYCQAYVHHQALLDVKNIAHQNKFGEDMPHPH
Briefly: Inhibition of human recombinant HDAC 6 by HDAC-Glo luminescent assay.

Data set [4] has as its target Histone deacetylase 3 (Homo sapiens) (UniProt O15379). Briefly: Inhibition of HDAC3 in human Huh7-luc/neo cells assessed as increase in histone H3 K9 acetylation incubated for 24 hrs by Western blot analysis. (Immunoblotting shows a protein as a band on a membrane.)
[5] abbreviates: HuH7 cells (CC50) and HCV-infected HuH7-luc/neo cells (EC50).

Histone deacetylase 3 (Homo sapiens), sequence (O15379 whole entry): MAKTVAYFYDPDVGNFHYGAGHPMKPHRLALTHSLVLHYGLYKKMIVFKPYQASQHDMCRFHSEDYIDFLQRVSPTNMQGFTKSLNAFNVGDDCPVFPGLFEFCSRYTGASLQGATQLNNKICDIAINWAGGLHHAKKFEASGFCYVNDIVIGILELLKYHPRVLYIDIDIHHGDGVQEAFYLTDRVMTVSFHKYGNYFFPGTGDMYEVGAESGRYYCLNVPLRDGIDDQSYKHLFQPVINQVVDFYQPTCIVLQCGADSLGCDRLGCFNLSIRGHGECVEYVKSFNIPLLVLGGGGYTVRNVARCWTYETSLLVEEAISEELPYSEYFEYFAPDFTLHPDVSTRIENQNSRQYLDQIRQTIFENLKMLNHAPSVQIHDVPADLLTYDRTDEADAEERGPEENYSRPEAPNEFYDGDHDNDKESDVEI

One may read the pEC50 as −log10 of the EC50, conventionally taken in molar units. As a reminder, the CC50 is the concentration that lowers cell viability or growth by half. For the molecule `O=C(/C=C/c1cccc(S(=O)(=O)Nc2ccccc2)c1)NO` [BELINOSTAT], the pEC50 with Hepatitis C virus was 6.72. The CC50 at 72 h in data set [1] is 0.65 µM.
Consider `O=C(NO)C1c2ccccc2Oc2ccccc21`, for which the pEC50 in the data set with Hepatitis C virus is 6.12. For the same molecule, in data set [1], the half-maximal cytotoxic concentration (CC50) at 72 h was determined as 300 µM. Also, the selectivity ratio in data set [2] (setting [5]) turned out to be 400.
Taken in the same sequence, the figures for `CCCNNC(=O)/C=C/c1ccccc1` were 5.27, 18 µM and 3.3.
Taken in the same sequence, the figures for `CCCNNC(=O)c1ccc(Cn2c3c(c4ccccc42)CN(C)CC3)cc1` were 6.62, 5.3 µM and 22.
Regarding `CN1CCc2c(c3ccccc3n2Cc2ccc(C(=O)NO)cc2)C1` [TUBASTATIN A], the pEC50 in the data set with Hepatitis C virus is 6.52. Further, the CC50 at 72 h in data set [1] was […]. Moreover, the selectivity ratio in data set [2] is […].
In the case of `CCNNC(=O)c1ccccc1`, the 50% cytotoxic concentration (CC50) at 72 h in data set [1] is greater than 1000 µM.
Turning to `CCCNNC(=O)CCCCCCC(=O)Nc1ccccc1`, the pEC50 in the data set on Hepatitis C virus was 5.89. In addition, the CC50 at 72 h in data set [1] turned out to be 7 µM. In data set [2] (setting [5]), the selectivity ratio stood at 5.4.
For `O=C(NO)c1ccc(-c2ccccc2)cc1`, the pEC50 in the data set on Hepatitis C virus was 6.40. Further, the CC50 at 72 h in data set [1] worked out at 30 µM. Further, the selectivity ratio in data set [2] (setting [5]) is 75.
For the molecule `O=C(CCCCCCC(=O)Nc1ccccc1)NO` [VORINOSTAT], the CC50 at 72 h in data set [1] came out at 0.64 µM.
As to `O=C(/C=C/c1ccccc1)NO`, in the data set with Hepatitis C virus, the pEC50 is 5.70. Also, the CC50 at 72 h in data set [1] stood at 20 µM. Further, the selectivity ratio in data set [2] turned out to be 10.
Take `Cc1nc2ccccc2n1Cc1ccc(C(=O)NO)cc1`: the pEC50 in the data set with Hepatitis C virus is 6.57. For the same molecule, the CC50 at 72 h in data set [1] was 7.9 µM. The selectivity ratio in data set [2] (setting [5]) amounted to 29.
What is called pIC50 is the negative decadic logarithm of the IC50, by convention in mol/L. In the case of `N[C@H](Cc1ccc(Cl)cc1Cl)C(=O)N1Cc2ccccc2C1`, in data set [3], the pIC50 was 4.52.
Turning to `CCCNNC(=O)/C=C/c1cccc(S(=O)(=O)Nc2ccccc2)c1`, in the data set with Hepatitis C virus, the pEC50 is 6.26. In data set [1], the CC50 at 72 h was found to be 0.68 µM. In data set [2] (setting [5]), the selectivity ratio was found to be 1.2.
Taken in the same sequence, the figures for `CCCNNC(=O)c1ccc(-c2ccccc2)cc1` were 5.82, 5.9 µM and 3.9.
Regarding `CCCNNC(=O)c1ccc(Cn2c(C)nc3ccccc32)cc1`, the negative logarithm of the EC50 (pEC50) with Hepatitis C virus is 7.60. Moreover, the CC50 at 72 h in data set [1] amounted to 9.9 µM. Further, the selectivity ratio in data set [2] (setting [5]) is 400.
In the case of `CCCNNC(=O)C1c2ccccc2Oc2ccccc21`, in data set [1], the cytotoxic concentration (CC50) at 72 h is greater than 300 µM.
Consider `O=C(NCC1(c2nc(-c3ccccc3)cs2)CCOCC1)c1cccc(-c2noc(C(F)(F)F)n2)c1`, for which, in the data set on Hepatitis C virus, the pEC50 is 5.35. Moreover, the CC50 at 72 h in data set [1] was determined as 83 µM. Moreover, the selectivity ratio in data set [2] stood at 18. Further, the inhibition entry in data set [4] was “Active”.
With `O=C(CCc1ccccc1)NO`, the pEC50 with Hepatitis C virus was 5.28. In addition, the CC50 at 72 h in data set [1] was 110 µM. Besides, the selectivity ratio in data set [2] (setting [5]) worked out at 21.
Taken in the same sequence, the figures for `CCCNNC(=O)CCc1ccccc1` were 5.42, 96 µM and 25.
Taken in the same sequence, the figures for `CCCNNC(=O)c1ccccc1` were 5.26, 120 µM and 22.
Take `CNNC(=O)c1ccccc1`: the CC50 at 72 h in data set [1] is greater than 1000 µM.
